Measurements as given in ChEMBL document CHEMBL4811301, “Synthesis and biological evaluation of 3-styrylchromone derivatives as selective monoamine oxidase B inhibitors” (Bioorg Med Chem, 2021).

What was measured:
Homo sapiens = species on record: Homo sapiens; experiment: Selectivity index, ratio of IC50 for recombinant human MAO-A to IC50 for recombinant human MAO-B
[1] = biological target: T1, Amine oxidase [flavin-containing] B (Homo sapiens, UniProt P27338); experiment: Mixed type inhibition of human recombinant MAO-B by Lineweaver-Burk plot analysis
T1 sequence (P27338 whole entry): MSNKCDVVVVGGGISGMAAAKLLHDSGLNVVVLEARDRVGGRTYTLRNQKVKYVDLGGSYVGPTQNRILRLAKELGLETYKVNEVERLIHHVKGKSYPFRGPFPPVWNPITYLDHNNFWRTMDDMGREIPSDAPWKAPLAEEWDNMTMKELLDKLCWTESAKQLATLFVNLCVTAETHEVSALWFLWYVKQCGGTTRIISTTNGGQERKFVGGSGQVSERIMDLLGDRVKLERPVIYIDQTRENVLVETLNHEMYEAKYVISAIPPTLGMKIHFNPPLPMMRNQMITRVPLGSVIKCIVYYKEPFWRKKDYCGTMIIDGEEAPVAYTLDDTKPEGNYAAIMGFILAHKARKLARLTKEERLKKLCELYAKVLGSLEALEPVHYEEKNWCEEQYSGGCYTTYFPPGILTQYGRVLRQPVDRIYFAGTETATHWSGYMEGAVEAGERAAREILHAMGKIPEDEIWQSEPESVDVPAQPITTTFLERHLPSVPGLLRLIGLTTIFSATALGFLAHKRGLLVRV

[2] = biological target: T1, Amine oxidase [flavin-containing] B; experiment: Inhibition of human recombinant MAO-B using kynuramine as substrate incubated for 20 mins measuring increase in emission signal at 400 nm multimode plate reader assay
[3] = biological target: T2, Amine oxidase [flavin-containing] A (Homo sapiens, UniProt P21397); experiment: Inhibition of human recombinant MAO-A […] as incubated for 20 mins measuring increase in emission signal at 310 nm multimode plate reader assay
T2 sequence (P21397 whole entry): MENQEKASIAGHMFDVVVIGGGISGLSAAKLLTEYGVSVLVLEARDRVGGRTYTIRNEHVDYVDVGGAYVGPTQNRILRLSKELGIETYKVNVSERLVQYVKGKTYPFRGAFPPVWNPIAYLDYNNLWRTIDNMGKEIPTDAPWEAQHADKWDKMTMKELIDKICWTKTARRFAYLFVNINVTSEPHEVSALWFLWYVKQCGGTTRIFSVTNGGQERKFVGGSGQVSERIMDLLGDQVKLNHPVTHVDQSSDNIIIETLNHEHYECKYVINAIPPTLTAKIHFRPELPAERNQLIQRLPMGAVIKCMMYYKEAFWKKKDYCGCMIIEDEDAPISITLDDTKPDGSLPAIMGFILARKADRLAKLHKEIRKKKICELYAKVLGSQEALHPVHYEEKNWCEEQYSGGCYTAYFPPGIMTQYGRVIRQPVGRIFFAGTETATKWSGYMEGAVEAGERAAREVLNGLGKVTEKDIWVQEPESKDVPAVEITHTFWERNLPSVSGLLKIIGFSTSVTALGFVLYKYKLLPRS

SMILES | Selectivity Index (Homo sapiens) | Ki [1] [nM] | IC50 [2] [nM] | IC50 [3] [nM]
COc1ccc2c(=O)c(/C=C/c3ccc(Cl)cc3)coc2c1 | 11 | 1.5 | 2.2 | 25
CN(C)c1ccc(/C=C/c2coc3ccccc3c2=O)cc1 | 875 | – | 48 | 42000
COc1ccc2occ(/C=C/c3cc(OC)c(OC)c(OC)c3)c(=O)c2c1 | > 40 | – | 2500 | > 100000
COc1ccc(/C=C/c2coc3ccccc3c2=O)cc1 | > 3400 | – | 29 | > 100000
O=c1c(/C=C/c2ccc(Cl)cc2)coc2ccccc12 | 66 | – | 5.9 | 390
COc1ccc(/C=C/c2coc3cc(OC)ccc3c2=O)cc1 | 10 | – | 6.8 | 69
COc1ccc2occ(/C=C/c3ccc(Cl)cc3)c(=O)c2c1 | 146 | – | 28 | 4100
COc1ccc2occ(/C=C/c3ccc(OC)c(OC)c3)c(=O)c2c1 | 76 | – | 800 | 61000
COc1ccc(/C=C/c2coc3ccccc3c2=O)cc1OC | 206 | – | 160 | 33000
COc1ccc2c(=O)c(/C=C/c3ccc(N(C)C)cc3)coc2c1 | 80 | – | 6.1 | 490
COc1ccc2c(=O)c(/C=C/c3ccc(O)cc3)coc2c1 | – | – | 47 | 22
O=c1c(/C=C/c2ccc(F)cc2)coc2ccccc12 | 72 | – | 8.6 | 620
COc1ccc2occ(/C=C/c3ccc(F)cc3)c(=O)c2c1 | 11 | – | 34 | 380
COc1ccc2occ(/C=C/c3ccccc3)c(=O)c2c1 | 33 | – | 75 | 2500
O=c1c(/C=C/c2ccc(O)cc2)coc2ccccc12 | 70 | – | 37 | 2600
COc1ccc2c(=O)c(/C=C/c3ccc(OC)c(OC)c3)coc2c1 | 576 | – | 33 | 19000
COc1ccc2c(=O)c(/C=C/c3ccccc3)coc2c1 | 8 | – | 16 | 120
COc1ccc2occ(/C=C/c3ccc(N(C)C)cc3)c(=O)c2c1 | 257 | – | 230 | 59000
COc1ccc2c(=O)c(/C=C/c3ccc(F)cc3)coc2c1 | – | – | 3.1 | 14
COc1cc(/C=C/c2coc3ccccc3c2=O)cc(OC)c1OC | 291 | – | 230 | 67000
COc1ccc2c(=O)c(/C=C/c3cc(OC)c(OC)c(OC)c3)coc2c1 | 348 | – | 21 | 7300
O=c1c(/C=C/c2ccccc2)coc2ccccc12 | > 3700 | 18 | 27 | > 100000
COc1ccc2occ(/C=C/c3ccc(O)cc3)c(=O)c2c1 | – | – | 330 | 8700
COc1ccc(/C=C/c2coc3ccc(OC)cc3c2=O)cc1 | 233 | – | 150 | 35000
